# Data taken from BindingDB's records for patent US20250161319 (Asclepieion Pharmaceutical, 2025).
# Biological target: Mitogen-activated protein kinase kinase kinase kinase 1 (Homo sapiens, UniProt Q92918)
# Assay: Tests of Compounds for Inhibiting HPK1 Kinase Activity In Vitro
# Method: The compound dilution was transferred into 384-well plate by using a pipette, afterwards, the 384-well plate was sealed and centrifuged at 1000 g for 1 min. 2-fold concentration of HPK1 solution was prepared in the kinase buffer, and then 2.5 μL of the prepared 2-fold concentration of HPK1 solution was added into the 384 wells, centrifuged at 1000 g for 30 s, and incubated for 10 min at room temperature. A mixture of 2-fold concentration of MBP and ATP was prepare in the kinase buffer, and […] of prepared mixture of 2-fold concentration of MBP and ATP was added into the above reaction system for the reaction, centrifuged at 1000 g for 30 s, and then incubated at room temperature for 1 h, 5 μL of ADP-Glo reagent was added into the reaction system, and incubated at room temperature for 40 min. 10 μL of kinase detection reagent was added and incubated at room temperature for 40 min.
# Sequence of Mitogen-activated protein kinase kinase kinase kinase 1 (Q92918 whole entry): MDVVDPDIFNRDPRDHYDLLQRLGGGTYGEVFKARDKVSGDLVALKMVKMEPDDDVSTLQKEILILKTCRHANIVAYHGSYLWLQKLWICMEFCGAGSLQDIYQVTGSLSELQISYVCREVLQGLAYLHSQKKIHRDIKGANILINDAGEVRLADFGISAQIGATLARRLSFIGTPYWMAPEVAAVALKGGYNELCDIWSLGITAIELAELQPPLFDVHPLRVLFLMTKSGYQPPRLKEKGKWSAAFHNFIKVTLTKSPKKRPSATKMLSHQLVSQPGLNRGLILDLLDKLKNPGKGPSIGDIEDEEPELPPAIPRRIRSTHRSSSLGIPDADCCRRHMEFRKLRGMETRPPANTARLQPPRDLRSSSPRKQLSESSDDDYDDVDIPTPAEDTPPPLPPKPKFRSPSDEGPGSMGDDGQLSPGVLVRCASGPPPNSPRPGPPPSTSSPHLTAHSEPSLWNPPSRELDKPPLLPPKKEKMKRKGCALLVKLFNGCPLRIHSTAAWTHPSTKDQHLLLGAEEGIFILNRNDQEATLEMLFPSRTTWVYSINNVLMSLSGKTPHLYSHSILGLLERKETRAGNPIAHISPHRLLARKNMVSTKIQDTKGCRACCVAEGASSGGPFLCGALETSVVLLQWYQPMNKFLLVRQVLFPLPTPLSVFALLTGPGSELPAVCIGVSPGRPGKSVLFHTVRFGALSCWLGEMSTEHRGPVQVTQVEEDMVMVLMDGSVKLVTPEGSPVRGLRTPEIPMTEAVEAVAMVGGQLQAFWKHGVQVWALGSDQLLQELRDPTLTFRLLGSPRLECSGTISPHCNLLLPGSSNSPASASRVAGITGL
row,IC50,SMILES
1,< 300 nM,"CN1CCN(c2ccc(C(=O)Nc3cc4cc(-c5cccn5C)c(F)c(N)c4cn3)cc2)CC1 [US20250161319, Example 7]"
2,< 100 nM,"Cn1cccc1-c1cc2cc(NC(=O)c3ccc(N4CCNCC4)cc3)ncc2c(N)c1F [US20250161319, Example 6]"
3,< 300 nM,"CCn1cccc1-c1cc2cc(NC(=O)C3CCC(F)CC3)ncc2c(N)c1F (configuration not stated) [US20250161319, Example 9]"
4,> 300 nM,"Cn1cccc1-c1cc2cc(NC(=O)C3CC3F)ncc2c(F)c1C#N (configuration not stated) [US20250161319, Example 10]"

# Further lines, the molecule ahead of its results:
row,SMILES,IC50
1,"CCn1cccc1-c1cc2cc(NC(=O)C3CC3F)ncc2c(N)c1F (configuration not stated) [US20250161319, Example 2]",< 50 nM
2,"CC(C)n1cccc1-c1cc2cc(NC(=O)C3CC3F)ncc2c(N)c1F (configuration not stated) [US20250161319, Example 3]",< 50 nM
3,"C=Cn1cccc1-c1cc2cc(NC(=O)C3CC3F)ncc2c(N)c1F (configuration not stated) [US20250161319, Example 4]",< 50 nM
